In patent US6521595B1, “Nonimmunosuppressive [γ-hydroxy-methylleucine4] cyclosporin A, hair growth stimulator and external composition for skin using the same” (LG Chemical, Ltd., priority 1999, dated 2003):

system: C57BL/6 mice; test: In vivo hair growth promoting effects on shaved back of C57BL/6 mice; parameters: species or system mouse; settings: seven week-old female C57BL/6 mice in telogen, 100 ul applied once a day for 30 days, compared to vehicle control
Protocol: Seven week-old, female C57BL/6 mice were housed in groups of 7 to 11 animals. Mice were in the telogen stage of the hair cycle when used, as indicated by the pinkish color of the skin.
The mice's hair of the region of back was shaved by a clipper. After a one day for adaptation 100 ul of [γ-hydroxy-methylleucine^4] cyclosporin A was applied on the shaved portion once a day for a period of 30 days. After determining the degree of hair growth by the naked eye, the results were photographed. […] In contrast, animals treated with the derivatives (the 11 derivatives mentioned in REFERENCE EXAMPLES 6 to 11) were almost at the level of the control group, having virtually no effects (data not shown).
The test expanded to the derivatives modified on No. 4 amino acid, methylleucine. The results of the hair growth-stimulating effects on the derivatives in which the original No. 4 amino acid, methylleucine, is substituted with the similarly structured methylisoleucine, methylvaline, leucine, isoleucine, methylalanine (REFERENCE EXAMPLES 1 to 5) are represented in FIG. 17 to FIG. 23, wherein the hair growth-stimulating effects of […], [methylvaline^4] (FIG. 20), [leucine^4] (FIG. 21), [isoleucine^4] (FIG. 22), [methylalanine^4]

Which “degree of hair growth (hair growth promoting effect) by the naked eye, photographed” value (“degree of hair growth” for short) does the source give for [Ile^4] cyclosporin A [[isoleucine^4]] here?
The value was “much lesser than cyclosporin A”.

For [Leu^4] cyclosporin A [[leucine^4]], which “degree of hair growth” value is on record?
Its value is “much lesser than cyclosporin A”.

With “[MeAla^4] cyclosporin A [[methylalanine^4]]” as the substance, how does the “degree of hair growth” value read?
Its value is “much lesser than cyclosporin A”.

Which “degree of hair growth” value does the source give for “[MeVal^4] cyclosporin A [[methylvaline^4]]” here?
The value was “much lesser than cyclosporin A”.

How did the “degree of hair growth” value turn out when “[methylisoleucine^4] cyclosporin A [[methylleucine^4]]” was run?
The value was “much lesser than cyclosporin A”.
